Measured values: ChEMBL document CHEMBL3621069 (Bioorg Med Chem Lett, 2015)

Legend:
[1] = molecular target: Proto-oncogene tyrosine-protein kinase receptor Ret (Homo sapiens, UniProt P07949); test: Inhibition of human RET pre-incubated for 30 mins at room temperature before substrate addition and measured 1 hr after substrate addition by cell free kinase assay
[2] = molecular target: Mitogen-activated protein kinase kinase kinase 9 (Homo sapiens) (UniProt P80192); test: Inhibition of human MLK1 at 0.1 uM
[3] = molecular target: Mitogen-activated protein kinase kinase kinase 9 (Homo sapiens) (UniProt P80192); test: Inhibition of human MLK1 at 0.01 uM
[4] = Inhibition of CYP450 (unknown origin); type: ADME, Homo sapiens
Plasma = test: Unbound fraction in human plasma; type: ADME, cell-free
[5] = molecular target: Voltage-gated inwardly rectifying potassium channel KCNH2 (Homo sapiens, UniProt Q12809); test: Inhibition of human ERG by manual patch clamp assay
Salmonella typhimurium [6] = test: Genotoxicity in Salmonella typhimurium TA1535 at 5000 µg/plate in absence of liver S9 fraction by Ames test; type: toxicity, organism-based; details: salmonella enterica subsp. enterica serovar typhimurium
Escherichia coli [7] = test: Genotoxicity in Escherichia coli WP2 uvrA at 5000 µg/plate in presence of liver S9 fraction by Ames test; type: toxicity, organism-based
Salmonella typhimurium [8] = test: Genotoxicity in Salmonella typhimurium TA1537 at 5000 µg/plate in absence of liver S9 fraction by Ames test; type: toxicity, organism-based; details: salmonella enterica subsp. enterica serovar typhimurium
Salmonella typhimurium [9] = test: Mutagenicity in Salmonella typhimurium TA98 at 5000 µg/plate in presence of liver S9 fraction by Ames test; type: toxicity, organism-based; details: salmonella enterica subsp. enterica serovar typhimurium
Salmonella typhimurium [10] = test: Mutagenicity in Salmonella typhimurium TA98 at 5000 µg/plate in absence of liver S9 fraction by Ames test; type: toxicity, organism-based; details: salmonella enterica subsp. enterica serovar typhimurium
Salmonella typhimurium [11] = test: Mutagenicity in Salmonella typhimurium TA100 at 5000 µg/plate in presence of liver S9 fraction by Ames test; type: toxicity, organism-based; details: salmonella enterica subsp. enterica serovar typhimurium
Escherichia coli [12] = test: Mutagenicity in Escherichia coli WP2 uvrA at 5000 µg/plate in absence of liver S9 fraction by Ames test; type: toxicity, organism-based
[13] = Clearance in Sprague-Dawley rat at 10 mg/kg, po; type: ADME, organism-based; details: in vivo
[14] = Clearance in dog at 5 mg/kg, iv; type: ADME, organism-based, Canis lupus familiaris; details: in vivo
[15] = Volume of distribution at steady state in dog at 5 mg/kg, iv; type: ADME, organism-based, Canis lupus familiaris; details: in vivo, read-out: Vdss
[16] = Half life in dog at 5 mg/kg, iv; type: ADME, organism-based, Canis lupus familiaris; details: in vivo
[17] = AUClast in dog at 5 mg/kg, iv; type: ADME, organism-based, Canis lupus familiaris; design: dose 5 mg/kg, time 0 - last, route intravenous; details: in vivo
[18] = AUClast in dog at 10 mg/kg, po; type: ADME, organism-based, Canis lupus familiaris; design: dose 10 mg/kg, route oral, time 0 - last; details: in vivo
[19] = Oral bioavailability in dog at 10 mg/kg; type: ADME, organism-based, Canis lupus familiaris; details: in vivo
Mus musculus [20] = test: Anti-arthritic activity in DBA1/J mouse model of collagen-induced arthritis assessed as reduction in arthritis clinical scores at 10 mg/kg, po administered orally continued once daily and twice daily through study; type: functional
Mus musculus [21] = test: Anti-arthritic activity in DBA1/J mouse model of collagen-induced arthritis assessed as reduction in arthritis clinical scores at 30 mg/kg, po administered orally continued once daily and twice daily through study; type: functional
[22] = test system: Tyrosine-protein kinase ABL1 (Homo sapiens), P00519 [Q252H]; test: Inhibition of human Abl Q252H mutant at 0.1 uM
[23] = test system: Epidermal growth factor receptor (Homo sapiens), P00533 [T790M]; test: Inhibition of human EGFR T790M mutant at 0.1 uM; type: protein assay
Sequence of Epidermal growth factor receptor (Homo sapiens), P00533 [T790M] (P00533 whole entry T790M): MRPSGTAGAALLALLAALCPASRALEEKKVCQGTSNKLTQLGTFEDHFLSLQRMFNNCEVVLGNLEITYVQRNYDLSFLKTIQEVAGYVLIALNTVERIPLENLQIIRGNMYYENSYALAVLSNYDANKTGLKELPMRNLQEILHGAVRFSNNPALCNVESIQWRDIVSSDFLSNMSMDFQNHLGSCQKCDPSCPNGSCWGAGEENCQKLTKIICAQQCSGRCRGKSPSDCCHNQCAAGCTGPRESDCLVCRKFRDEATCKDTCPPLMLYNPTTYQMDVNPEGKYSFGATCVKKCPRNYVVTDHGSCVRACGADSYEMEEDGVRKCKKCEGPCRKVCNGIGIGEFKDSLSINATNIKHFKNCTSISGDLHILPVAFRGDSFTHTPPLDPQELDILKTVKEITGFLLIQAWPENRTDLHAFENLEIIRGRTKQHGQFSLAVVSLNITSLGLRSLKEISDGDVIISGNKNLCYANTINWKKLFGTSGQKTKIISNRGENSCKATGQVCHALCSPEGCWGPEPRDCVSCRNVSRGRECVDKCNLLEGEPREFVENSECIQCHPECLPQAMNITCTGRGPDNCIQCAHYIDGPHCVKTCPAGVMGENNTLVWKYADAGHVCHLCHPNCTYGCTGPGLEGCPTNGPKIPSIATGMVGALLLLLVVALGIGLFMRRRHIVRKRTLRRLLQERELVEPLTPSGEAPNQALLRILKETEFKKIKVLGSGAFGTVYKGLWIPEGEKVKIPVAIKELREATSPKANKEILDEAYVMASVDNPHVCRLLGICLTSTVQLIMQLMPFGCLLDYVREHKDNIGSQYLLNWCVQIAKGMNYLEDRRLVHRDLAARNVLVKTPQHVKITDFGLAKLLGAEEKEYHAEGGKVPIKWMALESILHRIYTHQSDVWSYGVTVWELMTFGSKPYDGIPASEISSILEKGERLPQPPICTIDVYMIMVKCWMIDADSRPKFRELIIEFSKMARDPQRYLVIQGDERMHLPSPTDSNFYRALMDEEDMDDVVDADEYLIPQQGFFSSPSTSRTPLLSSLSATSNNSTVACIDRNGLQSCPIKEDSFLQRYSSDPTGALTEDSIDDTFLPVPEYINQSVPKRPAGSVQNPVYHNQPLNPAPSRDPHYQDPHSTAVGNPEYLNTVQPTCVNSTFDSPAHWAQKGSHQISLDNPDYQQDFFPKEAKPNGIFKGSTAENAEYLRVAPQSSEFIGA

[24] = test system: Epidermal growth factor receptor (Homo sapiens), P00533 [L858R,T790M]; test: Inhibition of human EGFR T790M/L858R mutant at 0.1 uM; type: protein assay
Sequence of Epidermal growth factor receptor (Homo sapiens), P00533 [L858R,T790M] (P00533 whole entry T790M/L858R, looked up): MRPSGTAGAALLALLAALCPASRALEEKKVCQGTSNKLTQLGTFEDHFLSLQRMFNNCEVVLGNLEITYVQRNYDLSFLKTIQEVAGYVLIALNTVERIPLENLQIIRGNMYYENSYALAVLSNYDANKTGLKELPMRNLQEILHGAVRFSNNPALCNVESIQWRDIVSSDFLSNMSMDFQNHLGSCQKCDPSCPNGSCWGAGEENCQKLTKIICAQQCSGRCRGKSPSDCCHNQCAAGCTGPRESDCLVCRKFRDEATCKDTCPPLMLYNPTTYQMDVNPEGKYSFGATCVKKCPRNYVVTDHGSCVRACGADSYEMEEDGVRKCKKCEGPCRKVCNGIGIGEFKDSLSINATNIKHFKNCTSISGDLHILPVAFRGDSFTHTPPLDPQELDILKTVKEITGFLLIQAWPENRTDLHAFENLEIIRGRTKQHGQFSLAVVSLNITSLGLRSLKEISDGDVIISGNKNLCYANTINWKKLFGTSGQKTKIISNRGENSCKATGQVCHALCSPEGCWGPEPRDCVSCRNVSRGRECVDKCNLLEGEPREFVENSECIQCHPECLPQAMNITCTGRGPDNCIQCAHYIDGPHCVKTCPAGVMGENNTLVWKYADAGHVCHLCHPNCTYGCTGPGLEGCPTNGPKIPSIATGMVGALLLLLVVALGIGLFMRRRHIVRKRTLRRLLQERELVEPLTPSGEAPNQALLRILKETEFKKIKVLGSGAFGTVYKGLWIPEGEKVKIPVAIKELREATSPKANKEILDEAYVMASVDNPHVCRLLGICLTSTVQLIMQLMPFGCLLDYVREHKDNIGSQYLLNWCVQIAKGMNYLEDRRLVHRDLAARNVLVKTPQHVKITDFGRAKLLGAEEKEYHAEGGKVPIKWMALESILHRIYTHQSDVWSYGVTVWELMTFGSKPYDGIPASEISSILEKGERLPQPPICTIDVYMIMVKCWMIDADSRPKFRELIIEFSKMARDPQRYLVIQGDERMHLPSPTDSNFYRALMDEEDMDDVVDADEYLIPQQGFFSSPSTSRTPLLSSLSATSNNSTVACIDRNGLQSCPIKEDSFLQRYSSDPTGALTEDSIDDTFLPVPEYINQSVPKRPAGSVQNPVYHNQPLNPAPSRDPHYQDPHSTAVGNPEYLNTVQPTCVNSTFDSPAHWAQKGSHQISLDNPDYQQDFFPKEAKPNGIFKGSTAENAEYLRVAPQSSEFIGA

[25] = test system: Receptor-type tyrosine-protein kinase FLT3 (Homo sapiens), P36888 [D835Y]; test: Inhibition of human Flt3 D835Y mutant at 0.1 uM
[26] = molecular target: Serine/threonine-protein kinase PLK3 (Homo sapiens) (UniProt Q9H4B4); test: Inhibition of human Plk3 at 0.1 uM
Sequence of Serine/threonine-protein kinase PLK3 (Homo sapiens) (Q9H4B4 whole entry, looked up): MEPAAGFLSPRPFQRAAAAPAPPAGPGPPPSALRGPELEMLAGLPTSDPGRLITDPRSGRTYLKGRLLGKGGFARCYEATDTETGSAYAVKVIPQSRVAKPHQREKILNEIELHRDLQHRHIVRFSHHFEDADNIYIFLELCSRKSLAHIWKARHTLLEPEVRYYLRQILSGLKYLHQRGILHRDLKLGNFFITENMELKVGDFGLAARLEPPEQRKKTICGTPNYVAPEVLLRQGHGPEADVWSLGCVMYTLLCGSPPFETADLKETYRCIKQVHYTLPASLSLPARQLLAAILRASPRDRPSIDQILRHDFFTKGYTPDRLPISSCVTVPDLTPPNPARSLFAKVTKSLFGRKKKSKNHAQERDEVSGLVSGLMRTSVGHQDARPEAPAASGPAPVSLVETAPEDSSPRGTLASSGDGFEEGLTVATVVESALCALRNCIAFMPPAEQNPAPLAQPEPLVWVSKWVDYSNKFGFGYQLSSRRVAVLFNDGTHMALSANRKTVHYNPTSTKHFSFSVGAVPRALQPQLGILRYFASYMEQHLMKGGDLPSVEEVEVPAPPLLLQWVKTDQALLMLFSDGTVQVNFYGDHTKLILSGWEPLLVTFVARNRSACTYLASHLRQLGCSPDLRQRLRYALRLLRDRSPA

[27] = molecular target: Tyrosine-protein kinase Fgr (Homo sapiens) (UniProt P09769); test: Inhibition of human Fgr at 0.1 uM
[28] = molecular target: Tyrosine-protein kinase Fyn (Homo sapiens) (UniProt P06241); test: Inhibition of human Fyn (unknown origin) at 0.1 uM
[29] = molecular target: Tyrosine-protein kinase Lck (Homo sapiens) (UniProt P06239); test: Inhibition of human Lck at 0.1 uM
[30] = molecular target: Tyrosine-protein kinase Lyn (Homo sapiens) (UniProt P07948); test: Inhibition of human Lyn at 0.1 uM
[31] = molecular target: Tyrosine-protein kinase Yes (Homo sapiens) (UniProt P07947); test: Inhibition of human Yes at 0.1 uM
Sequence of Tyrosine-protein kinase Yes (Homo sapiens) (P07947 2-543 limits assumed): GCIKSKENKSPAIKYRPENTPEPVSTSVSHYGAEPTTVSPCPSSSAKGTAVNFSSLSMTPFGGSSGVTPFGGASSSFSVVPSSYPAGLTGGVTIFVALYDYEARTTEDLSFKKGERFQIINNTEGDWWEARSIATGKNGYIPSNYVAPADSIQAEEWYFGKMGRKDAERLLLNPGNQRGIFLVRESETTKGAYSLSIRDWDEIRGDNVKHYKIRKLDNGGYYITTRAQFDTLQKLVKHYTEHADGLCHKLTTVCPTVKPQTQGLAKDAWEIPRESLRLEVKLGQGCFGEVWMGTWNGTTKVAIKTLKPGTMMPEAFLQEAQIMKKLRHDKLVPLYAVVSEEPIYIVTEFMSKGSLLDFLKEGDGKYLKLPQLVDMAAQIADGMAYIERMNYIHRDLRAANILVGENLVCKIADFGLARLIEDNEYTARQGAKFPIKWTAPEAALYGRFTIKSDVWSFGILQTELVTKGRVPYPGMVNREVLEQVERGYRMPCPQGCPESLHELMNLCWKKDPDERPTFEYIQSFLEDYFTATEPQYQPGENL

[32] = molecular target: Proto-oncogene tyrosine-protein kinase Src (Homo sapiens) (UniProt P12931); test: Inhibition of human Src (1 to 530 residues) at 0.1 uM
[33] = test system: Proto-oncogene tyrosine-protein kinase Src (Homo sapiens), P12931 [T341M]; test: Inhibition of human Src T341M mutant at 0.1 uM
[34] = molecular target: Tyrosine-protein kinase HCK (Homo sapiens) (UniProt P08631); test: Inhibition of human Hck at 0.1 uM
[35] = molecular target: Tyrosine-protein kinase Blk (Homo sapiens) (UniProt P51451); test: Inhibition of human Blk at 0.1 uM
[36] = test system: Tyrosine-protein kinase ABL1 (Homo sapiens), P00519 [Q252H]; test: Inhibition of human Abl Q252H mutant at 0.01 uM
[37] = test system: Epidermal growth factor receptor (Homo sapiens), P00533 [T790M]; test: Inhibition of human EGFR T790M mutant at 0.01 uM; type: protein assay
[38] = test system: Epidermal growth factor receptor (Homo sapiens), P00533 [L858R,T790M]; test: Inhibition of human EGFR T790M/L858R mutant at 0.01 uM; type: protein assay
[39] = test system: Receptor-type tyrosine-protein kinase FLT3 (Homo sapiens), P36888 [D835Y]; test: Inhibition of human Flt3 D835Y mutant at 0.01 uM
[40] = molecular target: Serine/threonine-protein kinase PLK3 (Homo sapiens) (UniProt Q9H4B4); test: Inhibition of human Plk3 at 0.01 uM
[41] = test system: Proto-oncogene tyrosine-protein kinase receptor Ret (Homo sapiens), P07949 [V804L]; details: 0.1 uM
Sequence of Proto-oncogene tyrosine-protein kinase receptor Ret (Homo sapiens), P07949 [V804L] (P07949 whole entry V804L): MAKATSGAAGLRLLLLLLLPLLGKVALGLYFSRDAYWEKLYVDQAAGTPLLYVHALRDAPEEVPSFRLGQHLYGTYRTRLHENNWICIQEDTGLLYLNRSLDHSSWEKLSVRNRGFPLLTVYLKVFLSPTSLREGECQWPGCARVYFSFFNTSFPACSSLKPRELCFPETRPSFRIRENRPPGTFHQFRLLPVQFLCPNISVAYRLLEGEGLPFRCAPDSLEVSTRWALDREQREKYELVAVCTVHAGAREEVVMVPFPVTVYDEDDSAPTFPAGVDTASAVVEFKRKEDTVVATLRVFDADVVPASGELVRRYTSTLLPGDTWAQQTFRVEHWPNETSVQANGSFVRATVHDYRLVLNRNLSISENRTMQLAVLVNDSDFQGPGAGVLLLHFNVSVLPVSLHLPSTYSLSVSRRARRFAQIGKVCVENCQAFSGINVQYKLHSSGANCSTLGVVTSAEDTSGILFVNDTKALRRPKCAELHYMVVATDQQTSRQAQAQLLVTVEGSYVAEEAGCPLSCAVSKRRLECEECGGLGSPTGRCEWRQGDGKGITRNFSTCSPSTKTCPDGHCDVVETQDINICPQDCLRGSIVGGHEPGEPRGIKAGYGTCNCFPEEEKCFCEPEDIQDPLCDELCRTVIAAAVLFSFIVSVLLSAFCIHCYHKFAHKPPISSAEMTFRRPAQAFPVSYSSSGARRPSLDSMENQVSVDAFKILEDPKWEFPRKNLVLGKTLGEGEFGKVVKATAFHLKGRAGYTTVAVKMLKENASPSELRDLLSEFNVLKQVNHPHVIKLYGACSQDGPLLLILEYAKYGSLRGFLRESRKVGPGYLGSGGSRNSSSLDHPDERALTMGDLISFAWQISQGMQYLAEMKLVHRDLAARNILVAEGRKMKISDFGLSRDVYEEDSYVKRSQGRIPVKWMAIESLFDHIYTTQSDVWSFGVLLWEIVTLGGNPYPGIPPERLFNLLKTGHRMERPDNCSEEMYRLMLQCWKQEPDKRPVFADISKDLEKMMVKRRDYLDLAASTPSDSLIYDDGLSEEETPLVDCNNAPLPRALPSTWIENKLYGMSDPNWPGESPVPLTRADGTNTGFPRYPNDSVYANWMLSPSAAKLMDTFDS
Description: Inhibition of human Ret V804L mutant at 0.1 uM

[42] = test system: Proto-oncogene tyrosine-protein kinase receptor Ret (Homo sapiens), P07949 [V804M]; details: 0.1 uM
Sequence of Proto-oncogene tyrosine-protein kinase receptor Ret (Homo sapiens), P07949 [V804M] (P07949 whole entry V804M): as the sequence (P07949 whole entry V804L) above, with L804M counted along it
Description: Inhibition of human Ret V804M mutant at 0.1 uM

[43] = test system: Proto-oncogene tyrosine-protein kinase receptor Ret (Homo sapiens), P07949 [V804L]; details: 0.01 uM
Description: Inhibition of human Ret V804L mutant at 0.01 uM

[44] = test system: Proto-oncogene tyrosine-protein kinase receptor Ret (Homo sapiens), P07949 [V804M]; details: 0.01 uM
Description: Inhibition of human Ret V804M mutant at 0.01 uM

[45] = molecular target: T1, Tyrosine-protein kinase SYK (Homo sapiens, UniProt P43405); test: Inhibition of purified full-length human SYK pre-incubated for 30 mins at room temperature before Ulight-TK peptide substrate addition and measured 1 hr after substrate addition by cell free kinase assay
[46] = molecular target: T1, Tyrosine-protein kinase SYK; test: Inhibition of SYK-mediated TNFalpha production in human IgG-stimulated human THP1 cells incubated for 18 hrs by ELISA method; type: cell-based, THP-1
[47] = molecular target: Vascular endothelial growth factor receptor 2 (Homo sapiens, UniProt P35968); test: Inhibition of KDR (unknown origin) pre-incubated for 30 mins at room temperature before substrate addition and measured 1 hr after substrate addition by cell free kinase assay

Sequence of Proto-oncogene tyrosine-protein kinase receptor Ret (P07949 whole entry): as the sequence (P07949 whole entry V804L) above, with L804V counted along it

Cc1nn(-c2ccnc(Nc3ccc4c(c3)c(Cl)c(C)n4C)n2)cc1CN1CC(O)C1
IC50 [1]: 67.8 nM
inhibition [2]: 91%
inhibition [3]: 44%
IC50 [4]: > 10000 nM
Fu (Plasma): < 0.4%
IC50 [5]: 24200 nM
Activity (Salmonella typhimurium [6]): Non-toxic
Activity (Escherichia coli [7]): Non-toxic
Activity (Salmonella typhimurium [8]): Non-toxic
Activity (Salmonella typhimurium [9]): Non-toxic
Activity (Salmonella typhimurium [10]): Non-toxic
Activity (Salmonella typhimurium [11]): Non-toxic
Activity (Escherichia coli [12]): Non-toxic
CL/F [13]: 26 mL/min/kg
clearance [14]: 40.4 mL/min/kg
Vd [15]: 7.1 L/kg
half-life [16]: 4.6 h
AUC(0-t) [17]: 2090 ng·h/mL
AUC(0-t) [18]: 1940 ng·h/mL
bioavailability [19]: 46.4%
inhibition in vivo at 10 mg/kg (Mus musculus [20]): 30%
inhibition in vivo at 30 mg/kg (Mus musculus [21]): 50%
inhibition [22]: > 70%
inhibition [23]: > 70%
inhibition [24]: > 70%
inhibition [25]: > 70%
inhibition [26]: > 70%
inhibition [27]: < 25%
inhibition [28]: < 25%
inhibition [29]: < 25%
inhibition [30]: < 25%
inhibition [31]: < 25%
inhibition [32]: < 25%
inhibition [33]: < 25%
inhibition [34]: < 25%
inhibition [35]: < 25%
inhibition [36]: < 50%
inhibition [37]: < 50%
inhibition [38]: < 50%
inhibition [39]: < 50%
inhibition [40]: < 50%
inhibition [41]: > 70%
inhibition [42]: > 70%
inhibition [43]: < 50%
inhibition [44]: < 50%

Cc1nn(-c2ccnc(Nc3ccc4c(c3)c(C)c(C)n4C)n2)cc1CN1CC(O)C1
IC50 [45]: 1.7 nM
IC50 [46]: 56 nM
IC50 [47]: 653 nM
IC50 [4]: > 10000 nM
Fu (Plasma): < 0.4%
Activity (Salmonella typhimurium [6]): Non-toxic
Activity (Escherichia coli [7]): Non-toxic
Activity (Salmonella typhimurium [8]): Non-toxic
Activity (Salmonella typhimurium [9]): Non-toxic
Activity (Salmonella typhimurium [10]): Non-toxic
Activity (Salmonella typhimurium [11]): Non-toxic
Activity (Escherichia coli [12]): Non-toxic
CL/F [13]: 21 mL/min/kg
